Reference: patent US6419962B1, “External skin treatment composition” (Shiseido Company, Ltd., priority 1996, dated 2002)

Assay: Moisture retention effect (coefficient of rate of moisture evaporation from weight change of sample)
Type: physicochemical
Conditions: 50 wt % aqueous solution
Description: The moisture retention effect of unicellularized carrot ([…]) was studied in comparison with water, glycerin ([…]), a methanol extract of carrot ([…]), and DPG (dipropylene glycol) ([…]).
That is, 50 μl each of the above samples was placed on a chemical balance placed in a room held to 22° C. and a dry humidity of 45%. The change in weight was measured every three minutes for seven times in total. From the results, the coefficient of the rate of moisture evaporation in the sample (coefficient k of rate of moisture evaporation found as dW/dt=kW where the amount of moisture is W and the elapsed time is t, that is, logW=kt+C (C is a constant)) was calculated. […]
Note that the method of study of this moisture retention effect was the same as the method used in the above Test Example A2. […]
Note that the method of study of the moisture retention effect was the same as the method performed in the above Test Example A2.
The moisture retention effect of unicellularized iris rhizome was studied in comparison with purified water, glycerol, and an ethanol extract of iris rhizome.
That is, with the exception of the purified water, a 50 wt % aqueous solution was prepared and the coefficient of the moisture evaporation rate was found in the same way as the study of the moisture retention effect of unicellularized carrot (Test Example A2). […]

Coefficient of moisture evaporation rate: −0.0230
SMILES: OCC(O)CO [Glycerol]
